From patent US11242555B2, “Molecular sensors and uses thereof” (New York University, priority 2018, dated 2022)
Structures can show the parent of a compound that is named as a salt. Where two headings read alike, the source gives them in different places.

How the values were obtained:
[1] = tested on: double-stranded oligo probe (DNA); assay: High-throughput screen of a compound library with the linear oligo probe (FRET ratio, 384 well plate); type: binding
Experimental: A library of compounds was mixed with the oligo probe in 384 well plate format. (A) The fluorescence spectra of the probe were recorded on a plate reader as in FIG. 21 and the FRET ratio (Cy5/Cy3 intensity) was calculated. […] (B) A library consisting of 1600 compounds from FDA and internationally approved drugs was screened to detect potential intercalators that can be drug repositioning targets.
The molecular sensors were used in vitro according to the following: 1) The sensors were diluted in a NaCl solution (e.g., in a 50-100 mM NaCl solution) and 0.2% BSA solution to a concentration of 1 μM. This can be adjusted depending on the sensitivity of the fluorescence measurement device. 2) The fluorescence spectrum was measured using a fluorescence spectrophotometer, a plate reader, or any other ad-hoc means. […] 3) The molecular species was added to be characterized for DNA binding properties or to be tested for intercalating or groove binding ability. The appropriate sensor is used (e.g., a linear or flexible molecular sensor). The fluorescence spectrum was measured again using the same methods and settings. 4) The FRET ratio was compared for both the sensor alone and sensor plus tested molecule. The FRET ratio is calculated by dividing the peak intensity of the acceptor fluorescence by that of the donor fluorescence.

[2] = tested on: flexible molecular sensor (DNA); assay: Flexible (tongs-shaped) molecular sensor in solution, groove binders and polypeptides (FRET ratio); type: binding; details: for FRET ratio as a function of drug concentration, with Mg / FRET ratio as a function of drug concentration, absence of Mg: flexible sensor; for FRET ratio as a function of drug concentration, with Mg: 20 mM MgCl added to solution; for FRET ratio as a function of drug concentration, absence of Mg: no Mg; for FRET ratio as a function of compound concentration: flexible sensor in solution
[3] = linear oligo probe, 384 well plate, Cy5/Cy3 intensity, library peak ˜1.1, a small ratio indicates intercalation

Row | Compound | FRET ratio [1, 3] | other results
1 | Cc1nccc2c1[nH]c1cc(O)ccc12 [HARMOL HYDROCHLORIDE] | – | FRET ratio [1]: 0.3867
2 | COc1cc2nc(N(C)CCCNC(=O)C3CCCO3)nc(N)c2cc1OC (centres unmarked) [ALFUZOSIN HYDROCHLORIDE] | 0.6784 | –
3 | Mitramycin | – | FRET ratio as a function of drug concentration, with Mg [2]: FRET ratio increases as a function of drug concentration; FRET ratio as a function of drug concentration, absence of Mg [2]: no change in the FRET ratio
4 | N.N.[Cl][Pt][Cl] [CISPLATIN] | 0.6996 | –
5 | Cc1ccc(S(=O)(=O)[N-]Cl)cc1.[Na+] [CHLORAMINE-T] | 0.3985 | –
6 | CCCCC(CC)COC(=O)C(C#N)=C(c1ccccc1)c1ccccc1 (centres unmarked) [OCTOCRYLENE] | 0.9187 | –
7 | Nc1c2ccccc2nc2ccccc12 [AMINACRINE] | 0.2941 | –
8 | LUPEOL ACETATE | 0.38 | –
9 | CC(=O)[C@H]1CC[C@H]2[C@@H]3CCC4=CC(=O)CC[C@]4(C)[C@H]3CC[C@]12C [PROGESTERONE] | 0.9184 | –
10 | COc1cc2nc(N3CCN(C(=O)C4COc5ccccc5O4)CC3)nc(N)c2cc1OC (centres unmarked) [DOXAZOSIN MESYLATE] | 0.8089 | –
11 | NC(N)=NC(=O)c1nc(Cl)c(N2CCCCCC2)nc1N [N,N-HEXAMETHYLENEAMILORIDE] | 0.38 | –
12 | CCOc1cc(C=O)ccc1O [ETHYL VANILLIN] | 0.9212 | –
13 | COc1cc(NC(C)CCCN)c2ncccc2c1 (centres unmarked) [PRIMAQUINE PHOSPHATE] | 0.8618 | –
14 | Cc1cc(N)c2ccccc2[n+]1CCCCCCCCCC[n+]1c(C)cc(N)c2ccccc21 [DEQUALINIUM CHLORIDE] | 0.6126 | –
15 | Cc1c(-c2cnccn2)ssc1=S [OLTIPRAZ] | 0.7447 | –
16 | NC(CO)C(=O)NNCc1ccc(O)c(O)c1O (centres unmarked) [BENSERAZIDE HYDROCHLORIDE] | 0.7832 | –
17 | Nc1c2c(nc3ccccc13)CCCC2 [TACRINE HYDROCHLORIDE] | 0.6067 | –
18 | CC(C)(C#N)O[C@@H]1O[C@H](CO)[C@@H](O)[C@H](O)[C@H]1O [LINAMARIN] | – | FRET ratio [1]: 0.4228
19 | N=C(N)NC(=O)c1nc(Cl)c(N)nc1N [AMILORIDE HYDROCHLORIDE] | 0.7057 | –
20 | CCN(CC)CCOc1ccc2c(c1)C(=O)c1cc(OCCN(CC)CC)ccc1-2 [TILORONE] | 0.443 | –

Row | Compound | FRET ratio [1, 3] | other results
21 | COC1C(O)CC(OC2CC(Oc3cc4cc5c(c(O)c4c(O)c3C)C(=O)[C@@H](OC3CC(OC4CC(OC6CC(C)(O)C(OC(C)=O)C(C)O6)C(O)C(C)O4)C(O)C(C)O3)[C@H]([C@H](OC)C(=O)[C@@H](O)[C@@H](C)O)C5)OC(C)C2OC(C)=O)OC1C (some centres unmarked) [Chromomycin] | – | FRET ratio as a function of drug concentration, with Mg [2]: FRET ratio increases as a function of drug concentration; FRET ratio as a function of drug concentration, absence of Mg [2]: no change in the FRET ratio
22 | COc1cc2c(cc1OC)-c1cc3ccc(OC)c(OC)c3c[n+]1CC2 [PALMATINE CHLORIDE] | 0.5141 | –
23 | C=C[C@H]1C[N@@]2CC[C@H]1C[C@@H]2[C@@H](O)c1ccnc2ccc(OC)cc12 [QUINIDINE GLUCONATE] | 0.9333 | –
24 | CCCCCCc1ccc(O)cc1O.Nc1c2ccccc2nc2ccccc12 [ACRISORCIN] | – | FRET ratio [1]: 0.2919
25 | Cn1cc(NC(=O)c2cc(NC(=O)CN=C(N)N)cn2C)cc1C(=O)NCCC(=N)N [Netrospin] | – | FRET ratio as a function of compound concentration [2]: concentration-dependent increase of the FRET ratio
26 | COc1cc2nc(N3CCN(C(=O)c4ccco4)CC3)nc(N)c2cc1OC [PRAZOSIN HYDROCHLORIDE] | 0.818 | –
27 | CC[C@H]1CN2CC[C@H]1C[C@@H]2[C@@H](O)c1ccnc2ccc(OC)cc12 [HYDROQUINIDINE] | 0.7512 | –
28 | CCN(CC)Cc1cc(Nc2ccnc3cc(Cl)ccc23)ccc1O [AMODIAQUINE DIHYDROCHLORIDE] | 0.8333 | –
29 | CO/N=C1\CN(c2nc3c(cc2F)c(=O)c(C(=O)O)cn3C2CC2)CC1CN (centres unmarked) [GEMIFLOXACIN MESYLATE] | 0.9051 | –
30 | C[C@@H]1O[C@@H](O[C@H]2[C@H](Oc3cc(O)c4c(=O)cc(-c5ccc(O)cc5)oc4c3)O[C@H](CO)[C@@H](O)[C@@H]2O)[C@H](O)[C@H](O)[C@H]1O [RHOIFOLIN] | 0.6817 | –
31 | COc1ccc2c(c1)[nH]c1c(C)nccc12 [HARMINE] | – | FRET ratio [1]: 0.754
32 | COc1cc(OC)c2c(=O)cc(-c3ccccc3)oc2c1 [CHRYSIN DIMETHYL ETHER] | 0.8385 | –
33 | MODALINE SULFATE | – | FRET ratio [1]: 0.1375
34 | COc1c2occc2cc2ccc(=O)oc12 [METHOXSALEN] | 0.9338 | –
35 | COc1ccc2c3c([nH]c2c1)C(C)=NCC3 [HARMALINE] | – | FRET ratio [1]: 0.646
36 | N=C(N)N/N=C/c1c(Cl)cccc1Cl [GUANABENZ ACETATE] | 0.7731 | –
37 | COc1ccc2nc3cc(Cl)ccc3c(Nc3cc(CN4CCCC4)c(O)c(CN4CCCC4)c3)c2n1.O=P(O)(O)O.O=P(O)(O)O.O=P(O)(O)O.O=P(O)(O)O [PYRONARIDINE TETRAPHOSPHATE] | – | FRET ratio [1]: 0.3325
38 | CCOP(=S)(OCC)Oc1nc(Cl)c(Cl)cc1Cl [CHLORPYRIFOS] | – | FRET ratio [1]: 0.5126
39 | Tri-lysine [Ly-3] | – | FRET ratio as a function of compound concentration [2]: increase the FRET ratio
40 | CC(C)NCC(O)COc1cccc2ccccc12.Cl (racemic) [PROPRANOLOL HYDROCHLORIDE (+/−)] | 0.9132 | –

Row | Compound | FRET ratio [1, 3] | other results
41 | O=C1c2c(O)cccc2C([C@@H]2O[C@H](CO)[C@@H](O)[C@H](O)[C@H]2O)c2cc(CO)cc(O)c21 (some centres unmarked) [ALOIN] | 0.7719 | –
42 | O=c1n(Cl)c(=O)n(Cl)c(=O)n1Cl [SYMCLOSENE] | – | FRET ratio [1]: 0.1489
43 | CC(=O)Oc1cccc2c1C(=O)c1c(OC(C)=O)cc(C(=O)O)cc1C2=O [DIACERIN] | – | FRET ratio [1]: 0.7
44 | CCN(CC)CCCC(C)Nc1c2ccc(Cl)cc2nc2ccc(OC)cc12 (centres unmarked) [QUINACRINE HYDROCHLORIDE] | 0.2743 | –
45 | COc1ccc(-c2cc(=O)c3ccccc3o2)cc1 [4′-METHOXYFLAVONE] | 0.543 | –
46 | CC[C@@H](CO)NC(=O)[C@@H]1C=C2c3cccc4c3c(cn4C)C[C@H]2N(C)C1 [METHYSERGIDE MALEATE] | – | FRET ratio [1]: 0.8993
47 | c1ccc2c(CC3=NCCN3)cccc2c1 [NAPHAZOLINE HYDROCHLORIDE] | 0.8789 | –
48 | CC(=O)c1ccc2c(c1)N(CCCN(C)C)c1ccccc1S2 [ACEPROMAZINE MALEATE] | 0.8037 | –
49 | OCCN1CCN(CCCN2c3ccccc3Sc3ccc(Cl)cc32)CC1 [PERPHENAZINE] | 0.9495 | –
50 | COc1ccc2cc3[n+](cc2c1OC)CCc1cc2c(cc1-3)OCO2 [BERBERINE CHLORIDE] | 0.4262 | –
51 | CC(=O)Oc1cc2c(cc1OC(C)=O)[C@@H]1c3ccc(OC(C)=O)c(OC(C)=O)c3OC[C@]1(OC(C)=O)C2 [HAEMATOXYLIN PENTAACETATE] | – | FRET ratio [1]: 0.6134
52 | CN1[C@@H]2CC[C@H]1C[C@@H](OC(=O)c1c[nH]c3ccccc13)C2 [TROPISETRON HYDROCHLORIDE] | 0.7228 | –
53 | COc1c2occc2c(OC)c2c(=O)cc(C)oc12 [KHELLIN] | 0.7494 | –
54 | N=C(N)N [GUANIDINE HYDROCHLORIDE] | 0.451 | –
55 | CN1CCc2cccc3c2[C@H]1Cc1ccc(O)c(O)c1-3 [APOMORPHINE HYDROCHLORIDE] | 0.9228 | –
56 | CC[C@@]1(O)C[C@H](O)c2c(cc3c(c2O)C(=O)c2c(O)ccc(O)c2C3=O)[C@H]1C(=O)OC [RUTILANTINONE] | – | FRET ratio [1]: 0.6761
57 | CCN(CC)CCNc1ccc(CO)c2sc3ccccc3c(=O)c12 [HYCANTHONE] | 0.4566 | –
58 | N=C(N)c1ccc(OCCCCCOc2ccc(C(=N)N)cc2)cc1 [Pentamidine] | – | FRET ratio as a function of compound concentration [2]: concentration-dependent increase of the FRET ratio
59 | CC1=CC(=O)c2c(O)cccc2C1=O [PLUMBAGIN] | 0.9364 | –
60 | N=C(N)c1ccc(-c2ccc(-c3ccc(C(=N)N)cc3)o2)cc1 [Fourmadine] | – | FRET ratio as a function of compound concentration [2]: concentration-dependent increase of the FRET ratio
